Bounds are passed on as bounds.

The target in the test is T1, JNK1 (Homo sapiens, UniProt P45983).
T1 construct: purchased Carna Biosciences
T1 sequence (P45983 whole entry): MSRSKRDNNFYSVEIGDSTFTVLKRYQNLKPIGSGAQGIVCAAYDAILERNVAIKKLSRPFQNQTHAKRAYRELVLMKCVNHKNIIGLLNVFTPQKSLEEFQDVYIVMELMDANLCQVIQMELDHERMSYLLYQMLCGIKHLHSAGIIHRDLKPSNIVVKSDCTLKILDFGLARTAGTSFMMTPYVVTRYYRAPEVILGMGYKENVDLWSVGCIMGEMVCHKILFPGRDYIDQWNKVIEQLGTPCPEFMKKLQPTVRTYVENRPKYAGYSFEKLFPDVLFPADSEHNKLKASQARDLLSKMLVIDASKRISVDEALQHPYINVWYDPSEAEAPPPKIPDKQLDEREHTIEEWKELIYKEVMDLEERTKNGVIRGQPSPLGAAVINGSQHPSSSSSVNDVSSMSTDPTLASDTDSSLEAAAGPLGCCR
Briefly: JNK1 biochemical assays (one or more of: time resolved fluorescence, Z'-LYTE Cascade, radioactive). The settings on record: one or more of the JNK1 biochemical assays; read-out: Act. Level (JNK1 IC50 activity level).
For orientation: IC50 means the midpoint of a concentration-inhibition curve. Take `CC1CCC1Nc1nc(N[C@H]2CC[C@H](O)CC2)ncc1C(N)=O` (stereo partly drawn) [Example 245, 2-((1r,4r)-4-hydroxycyclohexylamino)-4-(2-methylcyclobutylamino)pyrimidine-5-carboxamide]: the IC50 was less than 200 nM.

For the molecule `CC1CCC1Nc1nc(N[C@H]2CC[C@H](O)CC2)ncc1C(N)=O` (stereo partly drawn) [Example 246, 2-((1r,4r)-4-hydroxycyclohexylamino)-4-(2-methylcyclobutylamino)pyrimidine-5-carboxamide], the IC50 was less than 200 nM.

In the case of `CC1CCC1Nc1nc(N[C@H]2CC[C@H](O)CC2)ncc1C(N)=O` (stereo partly drawn) [Example 247, 2-((1r,4r)-4-hydroxycyclohexylamino)-4-(2-methylcyclobutylamino)pyrimidine-5-carboxamide], the concentration for half-maximal inhibition (IC50) is less than 200 nM.

Take `NC(=O)c1cnc(NC2CCCC(O)CC2)nc1NC1CCC1` (stereo not drawn) [Example 248, 4-(cyclobutylamino)-2-(4-hydroxycycloheptylamino)pyrimidine-5-carboxamide]: the concentration for half-maximal inhibition (IC50) was less than 200 nM.

As to `NC(=O)c1cnc(NC2CCCC(O)CC2)nc1NC1CCC1` (stereo not drawn) [Example 249, 4-(cyclobutylamino)-2-(4-hydroxycycloheptylamino)pyrimidine-5-carboxamide], the IC50 is less than 200 nM.

On to `CC(C)(C)Nc1nc(NC2CCCC(O)CC2)ncc1C(N)=O` (stereo not drawn) [Example 250, 4-(tert-butylamino)-2-(4-hydroxycycloheptylamino)pyrimidine-5-carboxamide], for which the IC50 was less than 200 nM.

Regarding `CC(C)(C)Nc1nc(NC2CCCC(O)CC2)ncc1C(N)=O` (stereo not drawn) [Example 251, 4-(tert-butylamino)-2-(4-hydroxycycloheptylamino)pyrimidine-5-carboxamide], the IC50 is less than 200 nM.

Regarding `NC(=O)c1cnc(NC2CCOCC2)nc1N[C@@H]1CCC[C@@H]1CO` [Example 252, 4-((1R,2S)-2-(hydroxymethyl)cyclopentylamino)-2-(tetrahydro-2H-pyran-4-ylamino)pyrimidine-5-carboxamide], the IC50 was less than 200 nM.

`CC(C)Nc1nc(NC23CCC(F)(CC2)CC3)ncc1C(N)=O` [Example 253, 2-(4-fluorobicyclo[2.2.2]octan-1-ylamino)-4-(isopropylamino)pyrimidine-5-carboxamide]: the IC50 is less than 200 nM.

Regarding `CO[C@H]1CC[C@H](Nc2ncc(C(N)=O)c(NC3CCC3C)n2)CC1` (stereo partly drawn) [Example 254, 2-((1r,4r)-4-methoxycyclohexylamino)-4-(2-methylcyclobutylamino)pyrimidine-5-carboxamide], the IC50 was less than 200 nM.

As to `CO[C@H]1CC[C@H](Nc2ncc(C(N)=O)c(NC3CCC3C)n2)CC1` (stereo partly drawn) [Example 255, 2-((1r,4r)-4-methoxycyclohexylamino)-4-(2-methylcyclobutylamino)pyrimidine-5-carboxamide], the IC50 was less than 200 nM.

As for `CC1CCC1Nc1nc(N[C@H]2CC[C@H](OCC(F)(F)F)CC2)ncc1C(N)=O` (stereo partly drawn) [Example 256, 4-(2-methylcyclobutylamino)-2-((1r,4r)-4-(2,2,2-trifluoroethoxy)cyclohexylamino)pyrimidine-5-carboxamide], the IC50 was less than 200 nM.

Consider `CC1CCC1Nc1nc(N[C@H]2CC[C@H](OCC(F)(F)F)CC2)ncc1C(N)=O` (stereo partly drawn) [Example 257, 4-(2-methylcyclobutylamino)-2-((1r,4r)-4-(2,2,2-trifluoroethoxy)cyclohexylamino)pyrimidine-5-carboxamide], for which the IC50 was less than 200 nM.

Take `CC1CCC1Nc1nc(N[C@H]2CC[C@H](OCC(F)(F)F)CC2)ncc1C(N)=O` (stereo partly drawn) [Example 258, 4-(2-methylcyclobutylamino)-2-((1r,4r)-4-(2,2,2-trifluoroethoxy)cyclohexylamino)pyrimidine-5-carboxamide]: the half-maximal inhibitory concentration (IC50) is less than 200 nM.

Consider `CCO[C@H]1CC[C@H](Nc2ncc(C(N)=O)c(N[C@@H]3CCC[C@H]3CO)n2)CC1` [Example 259, 2-((1r,4R)-4-ethoxycyclohexylamino)-4-((1R,2R)-2-(hydroxymethyl)cyclopentylamino)pyrimidine-5-carboxamide], for which the IC50 was less than 200 nM.

For `CO[C@H]1CC[C@H](Nc2ncc(C(N)=O)c(N[C@@H]3CCC[C@H]3CO)n2)CC1` [Example 260, 4-((1R,2R)-2-(hydroxymethyl)cyclopentylamino)-2-((1r,4R)-4-methoxycyclohexylamino)pyrimidine-5-carboxamide], the IC50 is less than 200 nM.

As for `C[C@@H](Nc1nc(N[C@H]2CC[C@H](O)CC2)ncc1C(N)=O)C1CC1` [Example 261, 4-((R)-1-cyclopropylethylamino)-2-((1r,4R)-4-hydroxycyclohexylamino)pyrimidine-5-carboxamide], the IC50 was less than 200 nM.

Turning to `CCC(C)(CC)Nc1nc(N[C@H]2CC[C@H](O)CC2)ncc1C(N)=O` [Example 262, 2-((1r,4r)-4-hydroxycyclohexylamino)-4-(3-methylpentan-3-ylamino)pyrimidine-5-carboxamide], the IC50 is less than 200 nM.

With `C[C@H](Nc1nc(N[C@H]2CC[C@H](O)CC2)ncc1C(N)=O)C1CC1` [Example 263, 4-((S)-1-cyclopropylethylamino)-2-((1r,4S)-4-hydroxycyclohexylamino)pyrimidine-5-carboxamide], the IC50 was less than 200 nM.

Take `C[C@@H]1CC[C@@H](Nc2nc(NC34CC(C3)C4)ncc2C(N)=O)C[C@H]1O` [Example 264, 2-(bicyclo[1.1.1]pentan-1-ylamino)-4-((1R,3R,4R)-3-hydroxy-4-methylcyclohexylamino)pyrimidine-5-carboxamide]: the IC50 was less than 200 nM.

`CC1CCC1Nc1nc(N[C@H]2CC[C@H](OCC(F)(F)F)CC2)ncc1C(N)=O` (stereo partly drawn) [Example 265, 4-(2-methylcyclobutylamino)-2-((1r,4r)-4-(2,2,2-trifluoroethoxy)cyclohexylamino)pyrimidine-5-carboxamide]: the IC50 is less than 200 nM.

`NC(=O)c1cnc(N[C@H]2CC[C@H](OCC(F)(F)F)CC2)nc1N[C@@H]1CCC[C@@H]1CO` [Example 266, 4-((1R,2S)-2-(hydroxymethyl)cyclopentylamino)-2-((1r,4R)-4-(2,2,2-trifluoroethoxy)cyclohexylamino)pyrimidine-5-carboxamide]: the IC50 was less than 200 nM.

With `NC(=O)c1cnc(NC23CCC(F)(CC2)CC3)nc1N[C@@H]1CCC[C@H](O)C1` [Example 267, 2-(4-fluorobicyclo[2.2.2]octan-1-ylamino)-4-((1R,3S)-3-hydroxycyclohexylamino)pyrimidine-5-carboxamide], the IC50 is less than 200 nM.

For the molecule `NC(=O)c1cnc(N[C@H]2CC[C@H](OC(F)F)CC2)nc1N[C@@H]1CCC[C@@H]1CO` [Example 268, 2-((1r,4R)-4-(difluoromethoxy)cyclohexylamino)-4-((1R,2S)-2-(hydroxymethyl)cyclopentylamino)pyrimidine-5-carboxamide], the IC50 was less than 200 nM.

Turning to `CCNc1nc(N[C@H]2CC[C@H](O)CC2)ncc1C(N)=O` [Example 269, 4-(ethylamino)-2-((1r,4r)-4-hydroxycyclohexylamino)pyrimidine-5-carboxamide], the IC50 is less than 200 nM.

In the case of `CNc1nc(N[C@H]2CC[C@H](O)CC2)ncc1C(N)=O` [Example 270, 2-((1r,4r)-4-hydroxycyclohexylamino)-4-(methylamino)pyrimidine-5-carboxamide], the IC50 fell in the range of 200 to 800 nM.

Consider `COCC(C)(C)Nc1nc(N[C@H]2CC[C@H](O)CC2)ncc1C(N)=O` [Example 271, 2-((1r,4r)-4-hydroxycyclohexylamino)-4-(1-methoxy-2-methylpropan-2-ylamino)pyrimidine-5-carboxamide], for which the concentration for half-maximal inhibition (IC50) was less than 200 nM.

For `C[C@@H]1CC[C@@H](Nc2nc(NC3CC3)ncc2C(N)=O)C[C@H]1O` [Example 272, 2-(cyclopropylamino)-4-((1R,3R,4R)-3-hydroxy-4-methylcyclohexylamino)pyrimidine-5-carboxamide], the IC50 was less than 200 nM.

In the case of `CCO[C@H]1CC[C@H](Nc2ncc(C(N)=O)c(NC(C)(C)C(C)C)n2)CC1` [Example 273, 4-(2,3-dimethylbutan-2-ylamino)-2-((1r,4r)-4-ethoxycyclohexylamino)pyrimidine-5-carboxamide], the IC50 was less than 200 nM.

In the case of `CO[C@H]1CC[C@H](Nc2ncc(C(N)=O)c(NC(C)(C)C(C)C)n2)CC1` [Example 274, 4-(2,3-dimethylbutan-2-ylamino)-2-((1r,4r)-4-methoxycyclohexylamino)pyrimidine-5-carboxamide], the IC50 was less than 200 nM.

`CC(C)C(C)(C)Nc1nc(N[C@H]2CC[C@H](O)CC2)ncc1C(N)=O` [Example 275, 4-(2,3-dimethylbutan-2-ylamino)-2-((1r,4r)-4-hydroxycyclohexylamino)pyrimidine-5-carboxamide]: the half-inhibitory concentration (IC50) is less than 200 nM.

For the molecule `CCO[C@H]1CC[C@H](Nc2ncc(C(N)=O)c(N[C@@H](C)C(C)(C)C)n2)CC1` [Example 276, 4-((S)-3,3-dimethylbutan-2-ylamino)-2-((1r,4S)-4-ethoxycyclohexylamino)pyrimidine-5-carboxamide], the half-inhibitory concentration (IC50) was less than 200 nM.

Regarding `CCO[C@H]1CC[C@H](Nc2ncc(C(N)=O)c(N[C@H](C)C(C)(C)C)n2)CC1` [Example 277, 4-((R)-3,3-dimethylbutan-2-ylamino)-2-((1r,4R)-4-ethoxycyclohexylamino)pyrimidine-5-carboxamide], the IC50 is less than 200 nM.

As for `CO[C@H]1CC[C@H](Nc2ncc(C(N)=O)c(N[C@@H](C)C(C)(C)C)n2)CC1` [Example 278, 4-((S)-3,3-dimethylbutan-2-ylamino)-2-((1r,4S)-4-methoxycyclohexylamino)pyrimidine-5-carboxamide], the IC50 was less than 200 nM.

Turning to `CO[C@H]1CC[C@H](Nc2ncc(C(N)=O)c(N[C@H](C)C(C)(C)C)n2)CC1` [Example 279, 4-((R)-3,3-dimethylbutan-2-ylamino)-2-((1r,4R)-4-methoxycyclohexylamino)pyrimidine-5-carboxamide], the IC50 is less than 200 nM.

With `C[C@H](Nc1nc(N[C@H]2CC[C@H](O)CC2)ncc1C(N)=O)C(C)(C)C` [Example 280, 4-((S)-3,3-dimethylbutan-2-ylamino)-2-((1r,4S)-4-hydroxycyclohexylamino)pyrimidine-5-carboxamide], the IC50 was less than 200 nM.

The values above are taken from patent US12129237B2, “Substituted diaminocarboxamide and diaminocarbonitrile pyrimidines, compositions thereof, and methods of treatment therewith” (SIGNAL PHARMACEUTICALS, LLC, priority 2011, dated 2024).
